According to the NIST ThermoML archive (doi:10.1016/j.tca.2011.12.021):

How the values were obtained:
[1] = wn = mass fraction of the nth substance listed; details: 101 kPa, Crystal, Hot wire method
[2] = 101.3 kPa, Crystal, Hot wire method

CC(C)(CO)CO [2,2-dimethyl-1,3-propanediol] + CC1(C)[C@@H]2CC[C@@]1(C)C(=O)C2
[1]
Details	thermal conductivity [W/m/K]
298 K, w2 = 0.7	0.35
303 K, w2 = 0.03	0.38
303 K, w2 = 0.3	0.37
303 K, w2 = 0.7	0.34
303 K, w2 = 0.96	0.3
308 K, w2 = 0.3	0.36
308 K, w2 = 0.7	0.34
313 K, w2 = 0.03	0.37
313 K, w2 = 0.3	0.35
313 K, w2 = 0.7	0.33
313 K, w2 = 0.96	0.3
315 K, w2 = 0.7	0.33
317 K, w2 = 0.7	0.33
318 K, w2 = 0.3	0.34
319 K, w2 = 0.7	0.32
321 K, w2 = 0.7	0.32
323 K, w2 = 0	0.4
323 K, w2 = 0.03	0.36
323 K, w2 = 0.3	0.33
323 K, w2 = 0.7	0.32
323 K, w2 = 0.96	0.3
325 K, w2 = 0.7	0.31
328 K, w2 = 0.3	0.32
328 K, w2 = 0.7	0.31
333 K, w2 = 0	0.38
333 K, w2 = 0.03	0.35
333 K, w2 = 0.3	0.31
333 K, w2 = 0.7	0.31
333 K, w2 = 0.96	0.29
338 K, w2 = 0.7	0.31
343 K, w2 = 0	0.36
343 K, w2 = 0.03	0.34
343 K, w2 = 0.7	0.31
343 K, w2 = 0.96	0.29
348 K, w2 = 0.7	0.3
353 K, w2 = 0	0.33
353 K, w2 = 0.03	0.32
353 K, w2 = 0.7	0.3
353 K, w2 = 0.96	0.29
358 K, w2 = 0.7	0.29
363 K, w2 = 0	0.32
363 K, w2 = 0.7	0.28
363 K, w2 = 0.96	0.28
373 K, w2 = 0	0.29
373 K, w2 = 0.96	0.28
383 K, w2 = 0	0.3
383 K, w2 = 0.96	0.28
393 K, w2 = 0	0.31
393 K, w2 = 0.96	0.27
403 K, w2 = 0.96	0.27
413 K, w2 = 0.96	0.26
423 K, w2 = 0.96	0.26
433 K, w2 = 0.96	0.25

CC(C)(CO)CO [2,2-dimethyl-1,3-propanediol]
[2]
Details	thermal conductivity [W/m/K]
323 K	0.4
333 K	0.38
343 K	0.36
353 K	0.33
363 K	0.32
373 K	0.29
383 K	0.3
393 K	0.31
